We go through 2 compounds from patent publication US5851782A, “Inhibitors of ceramidase” (Duke University, priority 1996, dated 1998).

Series [1] in a line: Cellular metabolism of tritium-labeled compounds (TLC). The format is cell-based, human. To be noted: human, hl-60 cells; HL-60, 5 μM, by 24 h; read-out: fraction of compound taken up that was metabolized. The method, then:
(§1) Metabolism studies. Lipids from cells treated with ^3 H-labeled compounds were extracted (Bligh & Dyer method), dried, resuspended in chloroform/methnol (10:1, v/v), and subjected to separation by TLC in chloroform/methanol (4:1, v/v). Spots containing radioactive compounds were scraped and radioactivity was measured using a scintillation counter.
(§2) Next, the metabolism of D- and L-e-MAPP was evaluated. To this end, organic lipids were extracted from cells treated with 5 μM D- or L-e-MAPP at the indicated time points (FIG. 5D), and lipids were resolved on TLC. […] On the other hand, L-e-MAPP underwent significant metabolism in a time-dependent fashion such that by 24 h, more than 70% of the L-e-MAPP taken up by cells was metabolized (FIG. 5, D and E). Two major breakdown products of L-e-MAPP were resolved by TLC. One metabolite co-migrated with […] and not with other neutral or polar lipids. The other metabolite (upper spot in FIG. 5D) comigrated with triacylglycerol.

Series [2] relates to endogenous ceramide levels in HL-60 cells. To be noted: HL-60, TLC of ceramide phosphates.
Description: (§3) Ceramide and diacylglycerol levels were measured on total liquid extracts using the diacylglycerol kinase assay (Jayadev et al, J. Biol. Chem. 270:2047 (1995)).
(§4) Therefore, HL-60 cells were treated with 5 μM D-e-MAPP, ethanol vehicle or L-e-MAPP for 0-24 h. At the indicated time points (FIG. 4A), total lipids were extracted and endogenous ceramide levels were measured by the Escherichia coli diacylglycerol kinase assay.
(§5) The upper spot of ceramide phosphate co-migrated with synthetic D-erythro-C18 dihydroceramide phosphate whereas the lower spot co-migrated with D-erythro-C18 ceramide phosphate.
For series [3] the test system is unchanged. The experiment in a line: cells. Conditions: Homo sapiens, HL-60, 24 h, read-out: endogenous ceramide level relative to baseline.
Description: as §3, §4, §5
Another series relates to HL-60 cells. Put plainly: Cellular metabolism of tritium-labeled compounds (TLC). In kind it is cell-based, human. Conditions: HL-60, 5 μM, TLC. The procedure:
as §1, §2

With `CCCCCCCCCCCCCC(=O)N[C@@H](C)[C@H](O)c1ccccc1` [L-e-MAPP, L-erythro-2-(N-myristolyamino)-1-phenyl-1-propanol], the metabolised at 24 h, 5 µM in series [1] is over 70%.

Turning to `CCCCCCCCCCCCCC(=O)N[C@H](C)[C@@H](O)c1ccccc1` [D-e-MAPP, D-erythro-2-(N-myristolyamino)-1-phenyl-1-propanol], the “selectivity of increase, ceramide versus dihydroceramide” value in series [2] is on record as “selective increase in ceramide but not dihydroceramide levels”. In addition, the fold induction at 5 µM in series [3] was about 3. For the same compound, the metabolism in cells entry in the series on HL-60 cells was “showed little metabolism and remained intact”.
